From ChEMBL document CHEMBL1201862, “PubChem BioAssay data set” (2004)
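Briefly, cells in 96-well plates were exposed to five compound concentrations for 48 h, and endpoints were estimated by linear interpolation. GI50 is the concentration that inhibits growth by half.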 The source made the active and inactive calls. No stated cut-off is given here; in the data, active = GI50 up to about 1.1 µM and inactive = higher.

Legend:
Test in all cases: NCI tumour cell line growth inhibition, 48 h
[1] = test system: PC-3
[2] = test system: UACC-257
[3] = test system: CCRF-CEM
[4] = test system: COLO 205
[5] = test system: SK-MEL-2
[6] = test system: HOP-62
[7] = test system: KM12
[8] = test system: 786-0
[9] = test system: A549
[10] = test system: NCI/ADR-RES
[11] = test system: EKVX
[12] = test system: MDA-MB-435
[13] = test system: HCT-116
[14] = test system: HCC 2998
[15] = test system: RPMI-8226
[16] = test system: NCI-H226
[17] = test system: A498
[18] = test system: Hs-578T
[19] = test system: DU-145
[20] = test system: SNB-19

Compound	GI50 [1]	GI50 [2]	GI50 [3]	GI50 [4]	GI50 [5]	GI50 [6]	GI50 [7]	GI50 [8]	GI50 [9]	GI50 [10]	GI50 [11]	GI50 [12]	GI50 [13]	GI50 [14]	GI50 [15]	GI50 [16]	GI50 [17]	GI50 [18]	GI50 [19]	GI50 [20]
O=S(=O)(O)c1cc(Nc2ccnc3ccccc23)c2c(S(=O)(=O)O)cc(S(=O)(=O)O)cc2c1	> 100 µM (inactive)	> 100 µM (inactive)	> 100 µM (inactive)	> 100 µM (inactive)	> 100 µM (inactive)	> 100 µM (inactive)	> 100 µM (inactive)	> 100 µM (inactive)	> 100 µM (inactive)	> 100 µM (inactive)	> 100 µM (inactive)	> 100 µM (inactive)	> 100 µM (inactive)	> 100 µM (inactive)	> 100 µM (inactive)	> 100 µM (inactive)	> 100 µM (inactive)	> 100 µM (inactive)	> 100 µM (inactive)	
Cc1ccc(C2=Nn3c(nc4sc5c(c4c3=O)CCCC5)SC2)cc1	> 100 µM (inactive)	> 100 µM (inactive)	> 100 µM (inactive)	> 100 µM (inactive)		> 100 µM (inactive)	> 100 µM (inactive)	> 100 µM (inactive)	> 100 µM (inactive)	> 100 µM (inactive)	> 100 µM (inactive)	> 100 µM (inactive)	> 100 µM (inactive)	> 100 µM (inactive)	> 100 µM (inactive)	> 100 µM (inactive)	> 100 µM (inactive)	35.7 µM (inactive)	> 100 µM (inactive)	
CCCCCc1c(Cl)nc(Cl)nc1Cl	8.99 µM (inactive)	13.9 µM (inactive)	0.195 µM (active)	7.85 µM (inactive)		22.6 µM (inactive)	13.9 µM (inactive)	3.67 µM (inactive)	39.7 µM (inactive)	12.1 µM (inactive)	22.5 µM (inactive)	2.76 µM (inactive)	3.82 µM (inactive)	11.1 µM (inactive)	3.03 µM (inactive)	2 µM (inactive)	20.1 µM (inactive)	43.3 µM (inactive)	21.7 µM (inactive)	15.7 µM (inactive)
O=C1C2=Nc3ccccc3C(O)N2c2ccccc21 (stereo not drawn)	> 86.9 µM (inactive)	4.09 µM (inactive)	> 92.7 µM (inactive)	39.2 µM (inactive)		65.3 µM (inactive)	> 78.5 µM (inactive)	36.6 µM (inactive)	32.8 µM (inactive)	40.3 µM (inactive)	57.9 µM (inactive)	2.56 µM (inactive)	> 83.4 µM (inactive)	27.2 µM (inactive)	53.8 µM (inactive)	27.8 µM (inactive)	18.7 µM (inactive)	40.5 µM (inactive)	53.3 µM (inactive)	74.1 µM (inactive)
O=S1(=O)c2cnccc2N=C(NCc2cccc3ccccc23)N1c1ccccc1	30 µM (inactive)	> 100 µM (inactive)	2.51 µM (inactive)	> 85.7 µM (inactive)		> 100 µM (inactive)	> 100 µM (inactive)	15 µM (inactive)	> 57.7 µM (inactive)	97.5 µM (inactive)	36.4 µM (inactive)	> 100 µM (inactive)	9.35 µM (inactive)	38.4 µM (inactive)	13.6 µM (inactive)	> 100 µM (inactive)	> 100 µM (inactive)	> 73.3 µM (inactive)	> 100 µM (inactive)	> 100 µM (inactive)
CCOC(=O)C(C(=O)OCC)C(NC(=O)Nc1cc(C(F)(F)F)ccc1OC)(C(F)(F)F)C(F)(F)F	39.6 µM (inactive)	39.5 µM (inactive)	20.8 µM (inactive)	17.8 µM (inactive)		25.4 µM (inactive)	26.9 µM (inactive)	24.6 µM (inactive)	39.4 µM (inactive)	28.6 µM (inactive)	70.3 µM (inactive)	19.1 µM (inactive)	36.2 µM (inactive)	25.6 µM (inactive)	18.8 µM (inactive)	25.5 µM (inactive)	16.5 µM (inactive)	25.2 µM (inactive)	40.3 µM (inactive)	39.9 µM (inactive)
N=C(N)SCc1cccc(-c2nc3ccccc3c(=O)o2)c1	> 100 µM (inactive)	> 100 µM (inactive)		> 100 µM (inactive)	> 100 µM (inactive)	> 100 µM (inactive)	> 100 µM (inactive)	> 100 µM (inactive)	> 100 µM (inactive)	> 100 µM (inactive)	> 100 µM (inactive)	> 100 µM (inactive)	> 100 µM (inactive)	> 100 µM (inactive)	> 100 µM (inactive)	> 100 µM (inactive)	> 100 µM (inactive)	> 100 µM (inactive)	> 100 µM (inactive)	> 100 µM (inactive)
CC(=O)O[C@@H]1C[C@]2(C(=O)c3ccccc3)C(=O)C(=O)S[C@]12c1ccccc1	36.5 µM (inactive)	55.8 µM (inactive)		38.3 µM (inactive)	38.5 µM (inactive)	61 µM (inactive)	41.1 µM (inactive)	35.5 µM (inactive)	55.8 µM (inactive)	41.6 µM (inactive)	52.2 µM (inactive)	29.2 µM (inactive)	46.6 µM (inactive)	26.7 µM (inactive)	30.4 µM (inactive)	52.6 µM (inactive)	40.2 µM (inactive)	39.5 µM (inactive)	51.8 µM (inactive)	39.8 µM (inactive)
CC(C)CC(NP(=O)(O)OC1OC(C)C(O)C(O)C1O)C(=O)NC(Cc1c[nH]c2ccccc12)C(=O)O (stereo not drawn)	> 100 µM (inactive)	> 100 µM (inactive)	> 100 µM (inactive)	> 100 µM (inactive)		> 100 µM (inactive)	> 100 µM (inactive)	> 100 µM (inactive)	> 100 µM (inactive)	> 100 µM (inactive)	> 100 µM (inactive)	> 100 µM (inactive)	> 100 µM (inactive)	> 100 µM (inactive)	> 100 µM (inactive)	> 100 µM (inactive)	> 100 µM (inactive)	> 100 µM (inactive)	> 100 µM (inactive)	> 100 µM (inactive)
COc1ccc(CCNC(=O)Cc2ccccc2CO)cc1OC	> 100 µM (inactive)	> 100 µM (inactive)	> 100 µM (inactive)	> 100 µM (inactive)	> 100 µM (inactive)	> 100 µM (inactive)	> 100 µM (inactive)	> 100 µM (inactive)	> 100 µM (inactive)	> 100 µM (inactive)	> 100 µM (inactive)	> 100 µM (inactive)	> 100 µM (inactive)	> 100 µM (inactive)	> 100 µM (inactive)	> 100 µM (inactive)	> 100 µM (inactive)	> 100 µM (inactive)	> 100 µM (inactive)	
O=c1c2ccccc2nc(N/N=C/c2ccccc2O)n1-c1ccccc1	3.57 µM (inactive)	5.04 µM (inactive)	3.27 µM (inactive)	3.99 µM (inactive)	7.67 µM (inactive)	5.25 µM (inactive)		1.53 µM (inactive)	4.8 µM (inactive)	2.27 µM (inactive)		4.71 µM (inactive)	2.88 µM (inactive)	5.27 µM (inactive)		5.41 µM (inactive)	> 100 µM (inactive)	7.82 µM (inactive)	5 µM (inactive)	56.5 µM (inactive)
Cc1c(C)c2c(c(N)c1C#N)C(=O)N(N)C2=O	> 100 µM (inactive)	> 100 µM (inactive)	> 100 µM (inactive)	> 100 µM (inactive)	> 100 µM (inactive)		> 100 µM (inactive)	87.9 µM (inactive)	> 100 µM (inactive)	> 100 µM (inactive)	> 100 µM (inactive)	> 100 µM (inactive)	84.9 µM (inactive)	> 100 µM (inactive)	> 100 µM (inactive)	78.7 µM (inactive)	40.4 µM (inactive)	> 100 µM (inactive)	> 100 µM (inactive)	> 100 µM (inactive)
O=C(C(=O)c1cc(-c2ccccc2)nc2ccc3ccccc3c12)c1ccccc1	43.2 µM (inactive)	75.7 µM (inactive)	24.7 µM (inactive)	88.1 µM (inactive)		31.6 µM (inactive)	31.3 µM (inactive)	33.5 µM (inactive)	68.4 µM (inactive)	97.7 µM (inactive)	76.9 µM (inactive)	33.2 µM (inactive)	10.6 µM (inactive)	> 100 µM (inactive)	> 100 µM (inactive)	72.6 µM (inactive)	90.4 µM (inactive)	20.7 µM (inactive)	> 100 µM (inactive)	35.9 µM (inactive)
COc1cc(S(=O)(=O)Nc2ccc(-c3csc(/N=C\c4cccs4)n3)cc2)ccc1Cl	> 100 µM (inactive)	51.8 µM (inactive)	19.8 µM (inactive)	32.5 µM (inactive)	96.6 µM (inactive)	67 µM (inactive)		59.3 µM (inactive)	78.7 µM (inactive)	> 100 µM (inactive)	28.1 µM (inactive)	29.3 µM (inactive)	37.4 µM (inactive)	29.4 µM (inactive)	29 µM (inactive)	57.4 µM (inactive)	31.8 µM (inactive)	68.2 µM (inactive)	29.4 µM (inactive)	32.6 µM (inactive)
